8 compounds from patent publication US7202235B2, “Tetracycline compounds for treatment of cryptosporidium parvum related disorders” (Trustees of Tufts College, priority 2000, dated 2007) can be followed below.

The subject of this experiment is Cryptosporidium parvum. In words: Assay for the ability of tetracycline compounds to control Cryptosporidium parvum infection in vitro (indirect immunofluorescence parasite count). It counts as cell-based. The settings on record: C. parvum GCH1 oocysts in MDCK/MDBK cell monolayers, 48 hour incubation, IF parasite count, class by concentration giving 70% inhibition. Here is the method: This assay is designed to test the ability of a tetracycline compound to control Cryptosporidium parvum infection in vitro. […] MDCK cells were grown in 96-well microtiter plastic plates, and were seeded with approximately 5×10^4 cells per well, using DMEM as the growth/maintenance medium with 10% FCS. Plates were normally grown to confluence 2–3 days after having been seeded with bleached, less than four week-old, C. parvum oocysts. The C. parvum isolate used most often was the human-derived, calf-propagated GCH1 (Tzipori, Clin. Diagn. Lab. Immunol. (1994) 1:450; Tzipori, J. Infect. Dis. (1995) 172:1160). The DMEM medium was also added to the negative control wells. The tetracycline compounds and the oocysts were added to the wells concurrently. The cells were subsequently monitored twice daily and any apparent morphologic changes were recorded. The monolayers were fixed with methanol after 48 hour incubation at 37° C. in 8% CO2. […] The tetracycline compounds were used at various concentrations (0.1–2000 μg/mL) and were dissolved directly into the culture medium. A conventional indirect immunofluorecensce (IF) assay was used to detect and enumerate parasite forms after 48-hour incubation. For the purposes of this assay, a polyclonal rabbit anti-sporozoite antibody was produced. […] The secondary antibody, a fluoroscein-conjugated goat anti-rabbit IgG, was used at a concentration of 1:100, according the manufacturer's instructions. The primary antibody was added after fixation for thirty minutes and after vigorous washing, the secondary antibody was incubated for another thirty minutes. The dried microtiter plate was viewed with an inverted microscope (x10 mag.), under ultraviolet light. For parasite counts, a semi-automated video imaging MCID system was used to facilitate the enumeration and analysis of the parasite data. In Table 1, good inhibition of C. parvum is indicated by ‘*’ (e.g., 70% inhibition at concentrations above 10 μg/ml and above) and very good inhibition of C. parvum is indicated by ‘**’ (e.g., 70% inhibition at concentrations below 10 μg/ml).

`CCC(=O)O[C@H]1C2C(=C(O)[C@]3(O)C(=O)C(C(N)=O)=C(O)[C@@H](N(C)C)C13)C(=O)c1c(O)cccc1[C@@H]2CSC1CCCC1` (some centres unmarked): the IC70 is under 10 µg/mL.

`CN(C)[C@@H]1C(O)=C(C(N)=O)C(=O)[C@@]2(O)C(O)=C3C(=O)c4c(O)cccc4[C@H](CSC4CCCC4)C3[C@H](O)C12` (some centres unmarked) registered a concentration for an effect of 70% (IC70) of under 10 µg/mL.

For the compound `CCC(=O)O[C@H]1C2C(=C(O)[C@]3(O)C(=O)C(C(N)=O)=C(O)[C@@H](N(C)C)C13)C(=O)c1c(ccc(C(C)(C)C)c1O)[C@@H]2C` (some centres unmarked), the IC70 is at least 10 µg/mL.

`CN(C)[C@@H]1C(O)=C(C(N)=O)C(=O)[C@@]2(O)C(O)=C3C(=O)c4c(O)cccc4SC3[C@H](O)C12` (some centres unmarked) gave an IC70 of at least 10 µg/mL.

Take `C[C@H]1c2ccc(C3=CCCC3)c(O)c2C(=O)C2=C(O)[C@]3(O)C(=O)C(C(N)=O)=C(O)[C@@H](N(C)C)C3[C@@H](O)C21` (some centres unmarked): the IC70 is under 10 µg/mL.

`C[C@H]1c2cccc(O)c2C(=O)C2=C(O)[C@]3(O)C(=O)C(C(N)=O)=C(O)[C@@H](N(C)C)C3[C@@H](O)C21` (some centres unmarked) registered an IC70 of at least 10 µg/mL.

Turning to `C[C@H]1c2ccc(C(C)(C)C)c(O)c2C(=O)C2=C(O)[C@]3(O)C(=O)C(C(N)=O)=C(O)[C@@H](N(C)C)C3[C@@H](O)C21` (some centres unmarked), the IC70 is under 10 µg/mL.

For the compound `CN(C)c1cc(C#CC2=CCCCC2)c(O)c2c1CC1CC3[C@H](N(C)C)C(O)=C(C(N)=O)C(=O)[C@@]3(O)C(O)=C1C2=O` (some centres unmarked), the IC70 is under 10 µg/mL.
